Measured values as given in patent US8969338B2, “Ethynyl derivatives” (Hoffmann-La Roche Inc., priority 2011, dated 2015).

Biological target: T1, human mGlu5a receptor (Homo sapiens, UniProt P41594)
T1 construct: expressed in transfected cells
Assay: Intracellular Ca2+ mobilization assay (mGlu5 PAM)
Type: cell-based
Settings: for EC50: HEK-293 cells stably transfected with human mGlu5a, L-glutamate added at EC20 after pre-incubation with test compound, read-out: EC50 (nM) mGlu5PAM; for Emax: maximal response in % of the maximal stimulatory effect obtained with saturating concentrations of L-glutamate, read-out: Eff. (%)
Method: A monoclonal HEK-293 cell line stably transfected with a cDNA encoding for the human mGlu5a receptor was generated; for the work with mGlu5 Positive Allosteric Modulators (PAMs), a cell line with low receptor expression levels and low constitutive receptor activity was selected to allow the differentiation of agonistic versus PAM activity. Cells were cultured according to standard protocols (Freshney, 2000) in Dulbecco's Modified Eagle Medium with high glucose supplemented with 1 mM glutamine, 10% (vol/vol) heat-inactivated bovine calf serum, Penicillin/Streptomycin, 50 μg/ml hygromycin and 15 μg/ml blasticidin (all cell culture reagents and antibiotics from Invitrogen, Basel, Switzerland).
About 24 hrs before an experiment, 5×10^4 cells/well were seeded in poly-D-lysine coated, black/clear-bottomed 96-well plates. The cells were loaded with 2.5 μM Fluo-4AM in loading buffer (1×HBSS, 20 mM HEPES) for 1 hr at 37° C. and washed five times with loading buffer. The cells were transferred into a Functional Drug Screening System 7000 (Hamamatsu, Paris, France), and 11 half logarithmic serial dilutions of test compound at 37° C. were added and the cells were incubated for 10-30 min, with on-line recording of fluorescence. Following this pre-incubation step, the agonist L-glutamate was added to the cells at a concentration corresponding to EC20 (typically around 80 μM) with on-line recording of fluorescence; in order to account for day-to-day variations in the responsiveness of cells, the EC20 of glutamate was determined immediately ahead of each experiment by recording of a full dose-response curve of glutamate.
Responses were measured as peak increase in fluorescence minus basal (i.e. fluorescence without addition of L-glutamate), normalized to the maximal stimulatory effect obtained with saturating concentrations of L-glutamate. Graphs were plotted with the % maximal stimulatory using XLfit, a curve fitting program that iteratively plots the data using Levenburg Marquardt algorithm. The single site competition analysis equation used was y=A+((B−A)/(1+((x/C)D))), where y is the % maximal stimulatory effect, A is the minimum y, B is the maximum y, C is the EC50, x is the log 10 of the concentration of the competing compound and D is the slope of the curve (the Hill Coefficient). From these curves the EC50 (concentration at which half maximal stimulation was achieved), the Hill coefficient as well as the maximal response in % of the maximal stimulatory effect obtained with saturating concentrations of L-glutamate were calculated.
A depression of the signal observed after addition of the EC20 concentration of L-glutamate was indicative of an inhibitory activity of the test compound.

T1 sequence (P41594 21-1180 isoform P41594-2 limits assumed): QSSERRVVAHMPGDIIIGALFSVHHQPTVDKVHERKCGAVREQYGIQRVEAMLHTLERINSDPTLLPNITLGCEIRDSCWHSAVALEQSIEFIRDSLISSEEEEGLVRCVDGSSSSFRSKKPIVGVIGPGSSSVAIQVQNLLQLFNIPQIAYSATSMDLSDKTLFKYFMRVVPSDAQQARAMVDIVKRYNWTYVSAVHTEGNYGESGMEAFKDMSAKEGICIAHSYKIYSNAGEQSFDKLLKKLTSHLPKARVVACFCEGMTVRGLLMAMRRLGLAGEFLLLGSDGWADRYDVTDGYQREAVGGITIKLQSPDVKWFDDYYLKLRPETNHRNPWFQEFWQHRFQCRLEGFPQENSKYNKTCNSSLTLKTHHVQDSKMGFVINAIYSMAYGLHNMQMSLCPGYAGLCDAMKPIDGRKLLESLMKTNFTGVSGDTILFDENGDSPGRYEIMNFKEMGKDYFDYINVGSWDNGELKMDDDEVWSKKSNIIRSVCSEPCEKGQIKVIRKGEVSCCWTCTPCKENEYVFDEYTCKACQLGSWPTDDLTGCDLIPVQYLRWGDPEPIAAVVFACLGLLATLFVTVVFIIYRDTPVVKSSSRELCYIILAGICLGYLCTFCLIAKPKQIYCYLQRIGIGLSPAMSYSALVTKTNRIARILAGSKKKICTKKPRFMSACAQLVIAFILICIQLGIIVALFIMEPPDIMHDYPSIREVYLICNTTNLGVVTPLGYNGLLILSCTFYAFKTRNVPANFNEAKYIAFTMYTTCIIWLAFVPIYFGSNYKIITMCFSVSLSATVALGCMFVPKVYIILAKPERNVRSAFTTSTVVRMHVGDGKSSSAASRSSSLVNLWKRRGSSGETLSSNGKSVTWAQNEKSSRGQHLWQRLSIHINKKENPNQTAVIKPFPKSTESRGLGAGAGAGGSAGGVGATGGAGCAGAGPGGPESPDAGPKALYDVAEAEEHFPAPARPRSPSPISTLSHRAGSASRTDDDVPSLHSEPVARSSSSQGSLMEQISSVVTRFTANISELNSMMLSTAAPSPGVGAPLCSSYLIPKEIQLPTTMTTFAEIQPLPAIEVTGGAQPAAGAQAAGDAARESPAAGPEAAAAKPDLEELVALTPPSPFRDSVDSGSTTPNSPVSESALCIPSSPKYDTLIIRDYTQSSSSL

EC50 [nM]	Emax [%]	SMILES
96	85	CC1(C)CCN(c2ccc(C#Cc3ccccc3)nc2)C(=O)O1 [Example 2, 6,6-Dimethyl-3-(6-phenylethynyl-pyridin-3-yl)-[1,3]oxazinan-2-one]
53	57	CN1N(c2ccc(C#Cc3cc(F)ccc3F)nc2)C(=O)CC1(C)C [Example 14, 2-[6-(2,5-Difluoro-phenylethynyl)-pyridin-3-yl]-1,5,5-trimethyl-pyrazolidin-3-one]
49	75	CC1(C)CC(=O)N(c2ccc(C#Cc3ccccc3)nc2)C1 [Example 1, 4,4-Dimethyl-1-(6-phenylethynyl-pyridin-3-yl)-pyrrolidin-2-one]
40	66	CN1N(c2ccc(C#Cc3ccccc3)nc2)C(=O)CC1(C)C [Example 12, 1,5,5-Trimethyl-2-(6-phenylethynyl-pyridin-3-yl)-pyrazolidin-3-one]
19	42	CN1C(=O)N(c2ccc(C#Cc3cccc(F)c3)nc2)CC1(C)C [Example 5, 1-[6-(3-Fluoro-phenylethynyl)-pyridin-3-yl]-3,4,4-trimethyl-imidazolidin-2-one]
241	36	CN1C(=O)N(c2ccc(C#Cc3cccnc3)nc2)CC1(C)C [Example 6, 3,4,4-Trimethyl-1-(6-pyridin-3-ylethynyl-pyridin-3-yl)-imidazolidin-2-one]
68	38	CC1(C)CC(=O)N(c2ccc(C#Cc3cccc(F)c3)nc2)N1 [Example 15, 2-[6-(3-Fluoro-phenylethynyl)-pyridin-3-yl]-5,5-dimethyl-pyrazolidin-3-one]
50	44	CN1C(=O)N(c2ccc(C#Cc3ccc(F)cc3)nc2)CC1(C)C [Example 4, 1-[6-(4-Fluoro-phenylethynyl)-pyridin-3-yl]-3,4,4-trimethyl-imidazolidin-2-one]
39	62	CC1(C)CC(=O)N(c2ccc(C#Cc3cccc(F)c3)nc2)C1 [Example 7, 1-[6-(3-Fluoro-phenylethynyl)-pyridin-3-yl]-4,4-dimethyl-pyrrolidin-2-one]
40	41	CC1(C)CC(=O)N(c2ccc(C#Cc3cc(F)ccc3F)nc2)N1 [Example 16, 2-[6-(2,5-Difluoro-phenylethynyl)-pyridin-3-yl]-5,5-dimethyl-pyrazolidin-3-one]
79	52	CCN1C(=O)N(c2cnc(C#Cc3ccccc3)nc2)CC1(C)C [Example 11, 3-Ethyl-4,4-dimethyl-1-(2-phenylethynyl-pyrimidin-5-yl)-imidazolidin-2-one]
62	56	CC1(C)CC(=O)N(c2ccc(C#Cc3ccccc3)nc2)N1 [Example 8, 5,5-Dimethyl-2-(6-phenylethynyl-pyridin-3-yl)-pyrazolidin-3-one]
15	45	CN1C(=O)N(c2ccc(C#Cc3ccccc3)nc2)CC1(C)C [Example 3, 3,4,4-Trimethyl-1-(6-phenylethynyl-pyridin-3-yl)-imidazolidin-2-one]
38	63	CN1N(c2ccc(C#Cc3cccc(F)c3)nc2)C(=O)CC1(C)C [Example 13, 2-[6-(3-Fluoro-phenylethynyl)-pyridin-3-yl]-1,5,5-trimethyl-pyrazolidin-3-one]
36	39	CC1(C)CC(=O)N(c2cnc(C#Cc3ccccc3)nc2)C1 [Example 9]
